Experimental data published in US20230065158A1, “OXABICYCLOHEPTANES FOR TREATMENT OF SMALL CELL LUNG CANCER” (Lixte Biotechnology, Inc., priority 2021, published 2023).
“Also recorded” adds a separate entry of the source.

How the values were obtained:
advanced solid tumors = conditions: cited from earlier work
H446 spheroids [1] = experiment: H446 spheroid growth, IncuCyte Live-Cell Analysis; assay type: cell-based; conditions: LB100 20 μM, up to 72 hours
Experimental: FIGS. 2A-2H depict the effect of LB-100 on H446 spheroid growth. FIG. 2A: Morphology of a single spheroid of H446 cells on days one and nine. Spheroids grow continuously and H&E staining is represented. FIG. 2B: Spheroid's growth in response to LB-100 treatment was recorded with IncuCyte Live-Cell Analysis System. FIG. 2C: Cytotoxicity effect of LB100 was recorded with IncuCyte Live-Cell Analysis System in the presence of LB-100 and IncuCyte Cytotox reagent in green fluorescence. […] Scale bar 100 μm. (FIGS. 2E and 2G). Effect of LB100 and carboplatin alone or in combination was monitored using IncuCyte Live Cell system for 70 h.
We further investigated the effect of LB100 and the chemotherapy drugs on spheroids formed by SCLC cells. Three cell lines H524, H69 and H446 were tested. The H524 and H69 cells formed large soft clumps in low-attachment 96 well plates. […] H446 spheroids treated with or without 20 μM LB100 were imaged in brightfield (BF) and using green fluorescence over 72 hours. The size of the spheroids was measured using an automated software algorithm that masked the largest BF in the field of view (label-free, real-time live cell assay for spheroids: IncuCyte bright-field analysis). […]
H446 cells were plated at a density of 10,000 cells per well and spheroid allowed to form (72-hours). […] Spheroids were imaged every 4 hours for 6 days and analyzed using the IncuCyte ZOOM software.

[2] = molecular target: protein phosphatase 2A (PP2A) (Homo sapiens, UniProt P67775); experiment: Inhibition of PP2A versus PP1; assay type: biochemical; conditions: PP2A vs PP1
Chain of protein phosphatase 2A (PP2A) (P67775 whole entry): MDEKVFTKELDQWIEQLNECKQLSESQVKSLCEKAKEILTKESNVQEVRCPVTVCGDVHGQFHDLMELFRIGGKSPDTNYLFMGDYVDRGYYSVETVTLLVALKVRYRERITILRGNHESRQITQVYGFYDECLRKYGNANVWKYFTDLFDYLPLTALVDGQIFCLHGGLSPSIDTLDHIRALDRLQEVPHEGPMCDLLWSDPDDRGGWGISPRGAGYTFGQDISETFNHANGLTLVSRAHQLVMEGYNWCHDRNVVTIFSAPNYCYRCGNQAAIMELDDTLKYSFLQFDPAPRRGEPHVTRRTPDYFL

H446 spheroids [3] = experiment: H446 spheroids with drugs and T cells, live imaging; assay type: cell-based; conditions: without T cells, 48 h
Experimental: FIGS. 7A-7G depict results of T cells infiltration in H446 spheroids in the presence of LB100 and atezolizumab. FIG. 7A: Schematic of the effect of activated T cells on H446 spheroid degradation. At time point 0, single spheroids in 96 well plate were treated with LB-100, atezolizumab and T cells. Beads mimic in vivo T cell activation by two action signals CD3 and CD28. IncuCyte® Live-Cell Analysis System was used for the spheroidal imaging. Right panel presents spheroidal degeneration after 48 h incubation with LB-100, atezolizumab and activated T cells. FIGS. 7B and 7C: Automated image analysis provides metrics (0 h-μm, […]) and spheroid area (yellow-bright field mask). Column bars present mean values of spheroids at 0h. Representative images in bright field mask. […]
Cytotoxic CD8+ cells were isolated from whole blood, buffy coat of healthy donors following the protocol described in the Methods. […] Spheroid survival was monitored for 48 hours and their diameters were measured from phase contrast images. […]
H446 were generated as described in Materials and Methods (Monitoring of spheroid growth and cytotoxicity with the IncuCyte® Live-Cell Analysis System and IncuCyte® Cytotox reagent) following incubation with T cells and drugs. The effect of LB100 and atezolizumab in the presence of T cells was monitored with IncuCyte 3D Multi-Tumor Spheroid assay.

In the case of `C[NH+]1CCN(C(=O)C2C(C(=O)O)[C@H]3CC[C@@H]2O3)CC1` (stereo in doubt) [LB-100, 3-[(4-Methylpiperazin-1-yl)carbonyl]-7-oxabicyclo[2.2.1]heptane-2-carboxylic acid], the “tolerability / adverse events” value (advanced solid tumors; Phase I trial) is listed as “no notable adverse events; also recorded: well tolerated”, the “patients who achieved stable disease” value (advanced solid tumors; Phase I, advanced solid tumors) is listed as 10 out of 20 and the “spheroid size (bright-field analysis)” value (H446 spheroids [1]) is listed as “spheroid shrinkage”. For the same molecule, the “inhibits PP2A more efficiently than protein phosphatase 1 (PP1)” value [2] was “about 80 fold” and the “effect on spheroids (degeneration), drug alone” value (H446 spheroids [3]) was “moderate effect”.
